From PubChem BioAssay (NCI)
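Step 1: Grow cells in 96-well plates. Step 2: Expose to compound for 48 hours at 5 concentrations. Step 3: Interpolate endpoints linearly; if unreached, use highest concentration. At the GI50, growth is halved. TGI denotes the concentration required for complete inhibition of growth.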

Columns and labels:
Assay in all cases: DTP human tumour cell line panel, 48 h
786-0 renal = system: 786-0 renal
SK-OV-3 ovarian = system: SK-OV-3 ovarian
MALME-3M melanoma = system: MALME-3M melanoma
HT29 colon = system: HT29 colon
PC-3 prostate = system: PC-3 prostate
TK-10 renal = system: TK-10 renal
RPMI-8226 leukemia = system: RPMI-8226 leukemia
KM12 colon = system: KM12 colon
LOX IMVI melanoma = system: LOX IMVI melanoma
NCI/ADR-RES ovarian = system: NCI/ADR-RES ovarian

Row | Compound | GI50 (786-0 renal) | TGI (786-0 renal) | GI50 (SK-OV-3 ovarian) | TGI (SK-OV-3 ovarian) | GI50 (MALME-3M melanoma) | TGI (MALME-3M melanoma) | GI50 (HT29 colon) | TGI (HT29 colon) | GI50 (PC-3 prostate) | TGI (PC-3 prostate) | GI50 (TK-10 renal) | TGI (TK-10 renal) | GI50 (RPMI-8226 leukemia) | TGI (RPMI-8226 leukemia) | GI50 (KM12 colon) | TGI (KM12 colon) | GI50 (LOX IMVI melanoma) | TGI (LOX IMVI melanoma) | GI50 (NCI/ADR-RES ovarian) | TGI (NCI/ADR-RES ovarian)
1 | COc1ccc(C(=O)c2cc(OC)c(C)c(OC)c2)cc1OC(=O)CCl | 3.65 µM | > 79.5 µM | 0.76 µM | > 100 µM | 0.572 µM | 48.1 µM | 4.21 µM | 27.6 µM | 0.275 µM | > 100 µM | 17.2 µM | > 100 µM | 0.337 µM | 14.1 µM | 0.13 µM | > 44.2 µM | 0.244 µM | 19.6 µM | 0.181 µM | 4.38 µM
2 | CC(C)=C[C@@H]1C[C@H](C)[C@H]2CC[C@H](C)C3=C2[C@](O)(OC3=O)[C@]1(C)O | > 100 µM | > 100 µM | > 100 µM | > 100 µM | > 100 µM | > 100 µM | > 100 µM | > 100 µM | > 100 µM | > 100 µM | > 100 µM | > 100 µM | > 100 µM | > 100 µM | > 100 µM | > 100 µM | > 100 µM | > 100 µM | > 100 µM | > 100 µM
3 | CC(C)(C)C(=O)OCOP(=O)(OCOC(=O)C(C)(C)C)C1CCCN(O)C1=O (stereo not given) | 0.35 µM | 18.1 µM | 0.508 µM | 8.81 µM | 0.425 µM | 5.81 µM | 0.335 µM | 8.53 µM | 2.02 µM | > 100 µM | 0.537 µM | 8.05 µM | 0.308 µM | 1.12 µM | 0.443 µM | 13.3 µM | 0.465 µM | 12.3 µM | 0.434 µM | 3.55 µM
4 | CC(SC(C)C(=O)N/N=C/c1cccc(Cl)c1)C(=O)N/N=C\c1cccc(Cl)c1 (stereo not given) | 14.5 µM | 35.5 µM | 13 µM | 31.2 µM | 13.9 µM | 35.7 µM | 11.6 µM | 32.1 µM | 4.36 µM | 25.8 µM | 4.66 µM | 18.1 µM | 17.9 µM | > 100 µM | 11.4 µM | 30.3 µM | 3.03 µM | 10.5 µM | 71.7 µM | > 100 µM
5 | Oc1ccc(Cl)cc1Cc1cc(Cl)cc(Cl)c1O | 8.98 µM | 30.1 µM | 2.93 µM | 13.1 µM | 3.68 µM | 18.7 µM | 19.8 µM | 43.9 µM | 3.59 µM | 15.5 µM | 7.88 µM | 44.1 µM | 3.09 µM | 11.9 µM | 4.34 µM | 19.8 µM | 4.83 µM | 19.2 µM | 3.29 µM | 10 µM
6 | O=c1c2ccccc2[se]n1-c1cccnc1 |  | 87.4 µM |  | > 100 µM |  | 50.7 µM |  | > 100 µM |  | 48.6 µM |  | 50.1 µM |  | 86.9 µM |  | > 100 µM |  | 56.8 µM |  | > 100 µM
